Measured values reported in patent publication US10100018B2, “Amide derivatives as lysophosphatidic acid receptor antagonists” (Takeda Pharmaceutical Company Limited, priority 2013, dated 2018).
Where a name gives a salt, the structure may show the parent alone. Read-outs that look alike come from different tables or passages of the source.

How the values were obtained:
[1] = test system: FPP-induced hyperalgesia; experiment: In vivo farnesyl pyrophosphate-induced inflammatory (hyperalgesia) model, Randall-Selitto; conditions: Rattus norvegicus, adult male rats, read-out: In vivo efficacy (minimum effective dose (MED)
Method: In Vivo Farnesyl Pyrophosphate-Induced Inflammatory Model
The FPP-induced hyperalgesia model is a pharmacodynamic rat model which involves inducing pain by injecting FPP, an agonist of LPA5 receptor, into the plantar surface of the hindpaw.
Withdrawal responses were reassessed at 30 and 90 minutes after injection of FPP in the ipsilateral paw.

[2] = test system: bleomycin-induced scleroderma; experiment: In vivo bleomycin induced scleroderma model; design: species or system C57BL/6 mice; conditions: for skin collagen content compared to the vehicle-treated group: skin samples Day 28
Method: In Vivo Bleomycin Induced Scleroderma Model
Adult male C57BL/6 mice, aged 8-10 weeks, were assigned to groups and allowed to acclimatise for a week. On Day −1, the back skin of the animals was shaved. From Day 0, animals were administered with 100 μl of a 1 mg/ml solution of bleomycin sulphate in phosphate buffered saline (PBS) by intradermal injection in the shaved skin. Injections were repeated in a one square centimeter area every other day for four weeks. A group of ten animals (Control group) was injected with an identical volume of PBS. Animals were weighed at the beginning of the experiment on Day 0 and then twice weekly throughout the study. At the end of the experiment, on Day 28, animals were culled and samples of back skin were taken for further analysis. All groups were n=10; the vehicle was distilled water and the administration volume was 10 ml/kg for oral gavage (p.o.); administration volume was 25 μl for topical application.
Bodyweights were graphed along with the standard error of the mean (SEM); Skin samples (two punch biopsies per animal, 4 mm in diameter each) samples were hydrolyzed and hydroxyproline content of the samples was determined from analysis in a semi-automated process using a continuous flow analyzer. Autoanalyser readings were calibrated against hydroxyproline standards and collagen content calculated.

[3] = molecular target: LPA5 receptor (Homo sapiens (Human), UniProt Q9H1C0); conditions: reported, Williams et al. (2009); cited from earlier work
LPA5 receptor, sequence (Q9H1C0 whole entry): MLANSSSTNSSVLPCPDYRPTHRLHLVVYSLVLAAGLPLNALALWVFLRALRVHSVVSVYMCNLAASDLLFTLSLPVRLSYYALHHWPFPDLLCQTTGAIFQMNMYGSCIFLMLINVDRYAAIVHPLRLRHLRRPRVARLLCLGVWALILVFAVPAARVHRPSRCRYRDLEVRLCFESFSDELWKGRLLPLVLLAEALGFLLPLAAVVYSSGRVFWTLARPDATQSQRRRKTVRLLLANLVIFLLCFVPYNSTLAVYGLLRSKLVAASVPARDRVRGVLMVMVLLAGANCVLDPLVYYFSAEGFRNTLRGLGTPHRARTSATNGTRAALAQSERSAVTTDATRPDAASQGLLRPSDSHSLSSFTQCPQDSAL

`CC(C)CCN(Cc1ccc(C(=O)O)cc1)C(=O)c1ccc(Oc2ccccc2F)cc1` [Example 8, 4-((4-(2-Fluorophenoxy)-N-isopentylbenzamido)methyl)benzoic acid] showed a minimal effective dose ([1]; route po) of 100 mg/kg.

With `O=C(O)c1ccc(CN(CC2CC2)C(=O)c2ccc(Oc3ccccc3F)cc2)cc1` [Example 5, 4-((N-(Cyclopropylmethyl)-4-(2-fluorophenoxy)benzamido)-methyl)benzoic acid] the minimal effective dose ([1]; route ip) was 0.3 mg/kg, the minimal effective dose ([1]; route po) was at most 10 mg/kg and the “bodyweight loss compared to the vehicle-treated group” value ([2]; 30 mg/kg p.o. BID, treated groups) was “did not differ”. For the same molecule, the “skin collagen content compared to the vehicle-treated group” value ([2]; administered from Day 0) was “significant reduction” and the “skin collagen content compared to the vehicle-treated group” value ([2]; administered from Day 14 to Day 28, 30 mg/kg p.o. BID) was “significant reduction”.

With `Cc1cccc(F)c1Oc1ccc(C(=O)N(Cc2ccc(C(=O)O)cc2)CC2CC2)cc1` [Example 40, 4-((N-(Cyclopropylmethyl)-4-(2-fluoro-6-methylphenoxy)-benzamido)methyl)benzoic acid] the minimal effective dose ([1]; route po) was 60 mg/kg.

For `CC(C)=CCC/C(C)=C/CC/C(C)=C/COP(=O)(O)OP(=O)(O)O` [Farnesyl pyrophosphate], the “selectivity over other LPA receptors” value [3] is listed as 3 fold.

Molecule `CC(C)CN(Cc1ccc(C(=O)O)cc1)C(=O)c1ccc(Oc2ccccc2F)cc1` [Example 4, 4-((4-(2-Fluorophenoxy)-N-isobutylbenzamido)methyl)benzoic acid] has a minimal effective dose ([1]; route ip) of 1 mg/kg and a minimal effective dose ([1]; route po) of at most 10 mg/kg.

`COc1ccccc1Oc1ccc(C(=O)N(Cc2ccc(C(=O)O)cc2)CC2CC2)cc1` [Example 31, 4-((N-(Cyclopropylmethyl)-4-(2-methoxyphenoxy)benzamido)-methyl)benzoic acid] gave a minimal effective dose ([1]; route po) of 1 mg/kg.

`O=C(O)c1ccc(CN(CC(F)(F)F)C(=O)c2ccc(Oc3ccccc3F)cc2)cc1` [Example 3, 4-((4-(2-Fluorophenoxy)-N-(2,2,2-trifluoroethyl)benzamido)-methyl)benzoic acid] gave a minimal effective dose ([1]; route po) of at most 10 mg/kg.

In the case of `C[C@H]1C[C@H]2[C@@H]3CCC4=CC(=O)C=C[C@]4(C)[C@@]3(F)[C@@H](O)C[C@]2(C)[C@@]1(O)C(=O)CO` [Betamethasone, reference compound], the “skin collagen content compared to the vehicle-treated group” value ([2]; administered from Day 0) is reported as “non-significant reduction”.

Work on `Cc1ccccc1Oc1ccc(C(=O)N(Cc2ccccc2)Cc2ccc(C(=O)O)cc2)cc1` [Example 24, 4-((N-Benzyl-4-(o-tolyloxy)benzamido)methyl)benzoic acid] yielded a minimal effective dose ([1]; route po) of 30 mg/kg.

`COc1ccccc1Oc1ccc(C(=O)N(Cc2ccc(C(=O)O)cc2)CC(F)F)cc1` [Example 29, 4-((N-(2,2-Difluoroethyl)-4-(2-methoxyphenoxy)benzamido)-methyl)benzoic acid] gave a minimal effective dose ([1]; route po) of 3 mg/kg.

For `O=C(O)c1ccc(CN(Cc2ccccc2)C(=O)c2ccc(Oc3ccccc3F)cc2)cc1` [Example 11, 4-((N-Benzyl-4-(2-fluorophenoxy)benzamido)methyl)benzoic acid], the minimal effective dose ([1]; route po) was at most 10 mg/kg.

In the case of `Cc1ccc(NC(=O)c2ccc(CN3CCN(C)CC3)cc2)cc1Nc1nccc(-c2cccnc2)n1` [Imatinib, Imatinib mesylate, reference compound], the “skin collagen content compared to the vehicle-treated group” value ([2]; administered from Day 0) is reported as “non-significant reduction”.
